Results published in patent US4464385A, “Treatment of diabetic complications with hydantoins” (Alcon Laboratories, Inc., priority 1982, dated 1984).

Test system: cataracts in rats
Assay: Prevention or retardation of cataracts in galactose-fed rats
Type: in vivo, rat
Settings: for % of Total Eyes, S (snowflake) / Number of Eyes Observed, + (vacuole) / Number of Eyes Observed, - (Normal) / Number of Eyes Observed, N (nuclear cataract) / Number of Eyes Observed, S (snowflake) / Number of Eyes Observed, ± / % of Total Eyes, + (vacuole) / % of Total Eyes, - (Normal) / % of Total Eyes, N (nuclear cataract): 30% galactose diet, A,C,E 0.0025%, B,D 0.01%
Method in brief: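 Rats given test compound mixed into diet (by % of total feed weight; 0.01% designed to supply 20 mg/kg/day) ad libitum for thirty days after a two-day chow acclimatization, twelve animals per treatment. Eyes examined by handheld ophthalmoscope and/or penlight and each eye graded.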

Q: What does the source list for C[S+]([O-])c1ccc2c(c1)C1(CCO2)NC(=O)NC1=O (stereo not shown) [D, spiro-(6-methylsulfinylchroman-4,4'-imidazolidine)-2',5'-dione]?
A: % of Total Eyes, S (snowflake) (Study Day 14): 29.2%; Number of Eyes Observed, + (vacuole) (Study Day 14): 15 eyes; Number of Eyes Observed, - (Normal) (Study Day 14): 0 eyes; Number of Eyes Observed, N (nuclear cataract) (Study Day 14): 0 eyes; Number of Eyes Observed, S (snowflake) (Study Day 14): 7 eyes; Number of Eyes Observed, ± (Study Day 14): 2 eyes; % of Total Eyes, + (vacuole) (Study Day 16): 45.8%; % of Total Eyes, - (Normal) (Study Day 16): 0%; % of Total Eyes, N (nuclear cataract) (Study Day 16): 0%; % of Total Eyes, S (snowflake) (Study Day 16): 37.5%; Number of Eyes Observed, + (vacuole) (Study Day 16): 13 eyes; Number of Eyes Observed, - (Normal) (Study Day 16): 0 eyes; Number of Eyes Observed, N (nuclear cataract) (Study Day 16): 0 eyes; Number of Eyes Observed, S (snowflake) (Study Day 16): 9 eyes; Number of Eyes Observed, ± (Study Day 16): 2 eyes; % of Total Eyes, + (vacuole) (Study Day 18): 54.2%; % of Total Eyes, - (Normal) (Study Day 18): 0%; % of Total Eyes, N (nuclear cataract) (Study Day 18): 0%; % of Total Eyes, S (snowflake) (Study Day 18): 37.5%; Number of Eyes Observed, + (vacuole) (Study Day 18): 13 eyes; Number of Eyes Observed, - (Normal) (Study Day 18): 0 eyes; Number of Eyes Observed, N (nuclear cataract) (Study Day 18): 0 eyes; Number of Eyes Observed, S (snowflake) (Study Day 18): 9 eyes; Number of Eyes Observed, ± (Study Day 18): 2 eyes; % of Total Eyes, + (vacuole) (Study Day 20): 29.2%; % of Total Eyes, - (Normal) (Study Day 20): 0%; % of Total Eyes, N (nuclear cataract) (Study Day 20): 4.2%; % of Total Eyes, S (snowflake) (Study Day 20): 58.4%; Number of Eyes Observed, + (vacuole) (Study Day 20): 7 eyes; Number of Eyes Observed, - (Normal) (Study Day 20): 0 eyes; Number of Eyes Observed, N (nuclear cataract) (Study Day 20): 1 eyes; Number of Eyes Observed, S (snowflake) (Study Day 20): 14 eyes; Number of Eyes Observed, ± (Study Day 20): 2 eyes; % of Total Eyes, + (vacuole) (Study Day 22): 20.8%; % of Total Eyes, - (Normal) (Study Day 22): 0%; % of Total Eyes, N (nuclear cataract) (Study Day 22): 8.3%; % of Total Eyes, S (snowflake) (Study Day 22): 70.8%; Number of Eyes Observed, + (vacuole) (Study Day 22): 5 eyes; Number of Eyes Observed, - (Normal) (Study Day 22): 0 eyes; Number of Eyes Observed, N (nuclear cataract) (Study Day 22): 2 eyes; Number of Eyes Observed, S (snowflake) (Study Day 22): 17 eyes; Number of Eyes Observed, ± (Study Day 22): 0 eyes; % of Total Eyes, + (vacuole) (Study Day 24): 20.8%; % of Total Eyes, - (Normal) (Study Day 24): 0%; % of Total Eyes, N (nuclear cataract) (Study Day 24): 8.3%; % of Total Eyes, S (snowflake) (Study Day 24): 70.8%; Number of Eyes Observed, + (vacuole) (Study Day 24): 5 eyes; Number of Eyes Observed, - (Normal) (Study Day 24): 0 eyes; Number of Eyes Observed, N (nuclear cataract) (Study Day 24): 2 eyes; Number of Eyes Observed, S (snowflake) (Study Day 24): 17 eyes; Number of Eyes Observed, ± (Study Day 24): 0 eyes; % of Total Eyes, + (vacuole) (Study Day 26): 16.7%; % of Total Eyes, - (Normal) (Study Day 26): 0%; % of Total Eyes, N (nuclear cataract) (Study Day 26): 8.3%; % of Total Eyes, S (snowflake) (Study Day 26): 75.0%; Number of Eyes Observed, + (vacuole) (Study Day 26): 4 eyes; Number of Eyes Observed, - (Normal) (Study Day 26): 0 eyes; Number of Eyes Observed, N (nuclear cataract) (Study Day 26): 2 eyes; Number of Eyes Observed, S (snowflake) (Study Day 26): 18 eyes; Number of Eyes Observed, ± (Study Day 26): 0 eyes; % of Total Eyes, + (vacuole) (Study Day 28): 16.7%; % of Total Eyes, - (Normal) (Study Day 28): 0%; % of Total Eyes, N (nuclear cataract) (Study Day 28): 16.7%; % of Total Eyes, S (snowflake) (Study Day 28): 66.7%; Number of Eyes Observed, + (vacuole) (Study Day 28): 4 eyes; Number of Eyes Observed, - (Normal) (Study Day 28): 0 eyes; Number of Eyes Observed, N (nuclear cataract) (Study Day 28): 4 eyes; Number of Eyes Observed, S (snowflake) (Study Day 28): 16 eyes; Number of Eyes Observed, ± (Study Day 28): 0 eyes; % of Total Eyes, + (vacuole) (Study Day 30): 4.2%; % of Total Eyes, - (Normal) (Study Day 30): 0%; % of Total Eyes, N (nuclear cataract) (Study Day 30): 16.7%; % of Total Eyes, S (snowflake) (Study Day 30): 79.2%; Number of Eyes Observed, + (vacuole) (Study Day 30): 1 eyes; Number of Eyes Observed, - (Normal) (Study Day 30): 0 eyes; Number of Eyes Observed, N (nuclear cataract) (Study Day 30): 4 eyes; Number of Eyes Observed, S (snowflake) (Study Day 30): 19 eyes; Number of Eyes Observed, ± (Study Day 30): 0 eyes; time to vacuole formation, 0.0025% methylthio versus 0.01% sulfinyl (methylthio 0.0025%, sulfinyl 0.01% in diet): not different from each other
